Measurements published in US5475114A, “Pyrazolotriazole derivatives” (Yamanouchi Pharmaceutical Co., Ltd., priority 1991, dated 1995).
Where a name gives a salt, the structure may show the parent alone.

Assays:
[1] = tested on: AII receptor; assay: in vivo: inhibitory effect on AII-caused pressor reaction in a spinal cord-broken rat; settings: dose which decreases 30 mm Hg of blood pressure after AII administration (100 ng/kg/min continuous iv)
Experimental: The AII receptor-blocking activity of the compound of the present invention was measured based on its antagonistic effect (in vitro) on AII contraction of an excised rabbit aorta and its inhibitory effect (in vivo) on AII-caused pressor reaction in a spinal cord-broken rat. In vivo test: An in vivo test was carried out by inserting cannulae into an aorta and a vein of a spinal cord-broken rat under artificial respiration. […] Since a drug having AII receptor-blocking activity inhibits the AII-caused continuous blood pressure increase in a dose-dependent manner, the AII antagonistic function of the test drug was examined based on the decreasing width of blood pressure after administration of the test drug.

[2] = target: T1, AII receptor (Oryctolagus cuniculus, UniProt P34976); assay: in vitro: antagonistic effect on AII contraction of an excised rabbit aorta (spiral strip); type: cell-based; settings: for Kb: negative log of concentration required to shift AII dose-response curve to two times higher concentration, read-out: in vitro (pA2 value) (converted); for IC50: negative log of concentration required to inhibit 50% of the maximum AII contraction, read-out: in vitro (pD2 ' value) (converted)
T1 construct: A portion of rabbit aorta was excised to prepare a spiral strip specimen; from tissue; host or cells: excised rabbit aorta, spiral strip
T1 sequence (P34976 1-359): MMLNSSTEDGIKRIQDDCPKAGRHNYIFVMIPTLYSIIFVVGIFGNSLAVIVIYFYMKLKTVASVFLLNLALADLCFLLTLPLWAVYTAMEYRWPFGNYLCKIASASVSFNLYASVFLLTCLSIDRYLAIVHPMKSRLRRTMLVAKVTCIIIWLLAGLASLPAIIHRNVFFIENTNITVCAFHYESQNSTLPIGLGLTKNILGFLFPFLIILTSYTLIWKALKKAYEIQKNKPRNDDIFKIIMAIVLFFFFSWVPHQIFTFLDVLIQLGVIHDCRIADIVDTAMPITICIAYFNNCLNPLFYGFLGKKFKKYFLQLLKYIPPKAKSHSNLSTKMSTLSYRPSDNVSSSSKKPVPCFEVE
Experimental: The AII receptor-blocking activity of the compound of the present invention was measured based on its antagonistic effect (in vitro) on AII contraction of an excised rabbit aorta and its inhibitory effect (in vivo) on AII-caused pressor reaction in a spinal cord-broken rat.
A portion of rabbit aorta was excised to prepare a spiral strip specimen which was subsequently hung in Krebs-Hensseleit solution. This spiral strip specimen causes a dose-dependent contraction when AII is added to the Krebs-Hensseleit solution. Since a drug having AII receptor-blocking activity causes shifting of the dose-response curve of the AII-based contraction to the high concentration side or reduces maximum contraction by AII, a shifted width of the dose-response curve before and after the addition of each test drug or a maximum contraction inhibiting ratio was calculated.

Row | SMILES | Kb [2] [nM] | IC50 [2] [nM] | in vivo (IC30 mmHg (mg/kg, iv)) [1] [mg/kg]
1 | CCc1nc2c(CC)c(C=O)n(Cc3ccc(-c4ccccc4-c4nn[nH]n4)cc3)n2n1 [Example 96, 2,7-diethyl-5-[[2'-(tetrazol-5-yl)biphenyl-4-yl]methyl]-5H-pyrazolo[1,5-b][1,2,4]triazole-6-carboxyaldehyde] | 0.692 | – | 0.02
2 | CCc1nc2c(CC)c(CO)n(Cc3ccc(-c4ccccc4-c4nn[nH]n4)cc3)n2n1 [Example 98] | 0.955 | – | 0.02
3 | CCCCc1nc(Cl)c(CO)n1Cc1ccc(-c2ccccc2-c2nn[nH]n2)cc1 [Dup 753, reference compound] | – | – | 0.1
4 | CCc1nc2c(CC)c(C(=O)O)n(Cc3ccc(-c4ccccc4-c4nn[nH]n4)cc3)n2n1 [Example 99, 2,7-diethyl-5-[[2'-(tetrazol-5-yl)biphenyl-4-yl]methyl]-5H-pyrazolo[1,5-b][1,2,4]'triazole-6-carbonic acid] | – | 0.49 | –
5 | CCc1nc2c(CC)c(COC)n(Cc3ccc(-c4ccccc4-c4nnn[nH]4)cc3)n2n1 [Example 95, 2,7-diethyl-6-methoxymethyl-5-[[2'-(tetrazol-5-yl)biphenyl-4-yl]methyl]-5H-pyrazolo[1,5-b][1,2,4]triazole] | 1.41 | – | 0.06
6 | CCc1cn(Cc2ccc(-c3ccccc3-c3nnn[nH]3)cc2)n2nc(C)nc12 [Example 53, 7-ethyl-2-methyl-5-[[2'-(tetrazol-5-yl)biphenyl-4-yl]methyl]-5H-pyrazolo[1,5-b][1,2,4]triazole] | 3.16 | – | 0.01
7 | CCc1nc2c(C(C)C)cn(Cc3ccc(-c4ccccc4-c4nnn[nH]4)cc3)n2n1 [Example 57, 2-ethyl-7-isopropyl-5-[[2'-(tetrazol-5-yl)biphenyl-4-yl]methyl]-5H-pyrazolo[1,5-b][1,2,4]triazole] | 3.02 | – | 0.04
8 | CCc1nc2c(CC)cn(Cc3ccc(-c4ccccc4-c4nnn[nH]4)cc3)n2n1 [Example 52, 2,7-diethyl-5-[[2'-(tetrazol-5-yl)biphenyl-4-yl]methyl]-5H-pyrazolo[1,5-b][1,2,4]triazole] | 2.24 | – | 0.025

Continued, in another order:

Row | Kb [2] [nM] | IC50 [2] [nM] | SMILES | in vivo (IC30 mmHg (mg/kg, iv)) [1] [mg/kg]
9 | 0.562 | – | CCOC(=O)c1c(CC)c2nc(CC)nn2n1Cc1ccc(-c2ccccc2-c2nnn[nH]2)cc1 [Example 101, ethyl 2,7-diethyl-5-[[2'-(tetrazol-5-yl)biphenyl-4-yl]methyl]-5H-pyrazolo[1,5-b][1,2,4] triazole-6-carboxylate] | –
10 | 0.724 | – | CCc1nc2c(CC)c(C(=O)OC)n(Cc3ccc(-c4ccccc4-c4nn[nH]n4)cc3)n2n1 [Example 102, methyl 2,7-diethyl-5-[[2'-(tetrazol-5-yl)biphenyl-4-yl]methyl]-5H-pyrazolo[1,5-b][1,2,4]triazole-6-carboxylate sodium salt] | –
11 | 1.55 | – | CCc1nc2c(CC)cn(Cc3ccc(-c4ccccc4-c4nn[nH]n4)cc3)n2n1 [Example 100, 2,7-diethyl-5-[[2'-(tetrazol-5-yl)biphenyl-4-yl]methyl]-5H-pyrazolo[1,5-b][1,2,4]triazole potassium salt] | –
12 | – | 0.933 | CCOC(=O)OC(C)OC(=O)c1c(CC)c2nc(CC)nn2n1Cc1ccc(-c2ccccc2-c2nnn[nH]2)cc1 (stereo not drawn) [Example 105, 1-ethoxycarbonyloxyethyl 2,7-diethyl-5-[[2'-(tetrazol-5-yl)biphenyl-4-yl]methyl]-5H-pyrazolo[1,5-b][1,2,4]triazole-6-carboxylate] | –
